Patent US7388025B2, “3-aryl-isoxazole-4-carbonyl-benzofuran derivatives” (Hoffman-La Roche Inc., priority 2005, dated 2008)

Molecular target: T1, human GABA A receptor α5β3γ2 (Homo sapiens, UniProt P18507+P31644)
T1 construct: expressed in transfected cells; host or cells: HEK293 cells, transiently transfected; membranes prepared from them
Test: [3H]flumazenil competition binding, HEK293 cells expressing human GABA A α5β3γ2 receptors
Conditions: human α5β3γ2 in HEK293 (transiently transfected), 0.5 nM [3H]flumazenil, mean of two determinations; read-out: Ki[nM] hα5
Procedure: Membrane Preparation and Binding Assay
The affinity of compounds at GABA A receptor subtypes was measured by competition for [3H]flumazenil (85 Ci/mmol; Roche) binding to HEK293 cells expressing rat (stably transfected) or human (transiently transfected) receptors of composition α1β3γ2, α2β3γ2, α3β3γ2 and α5β3γ2.
Cell pellets were suspended in Krebs-tris buffer (4.8 mM KCl, 1.2 mM CaCl2, 1.2 mM MgCl2, 120 mM NaCl, 15 mM Tris; pH 7.5; binding assay buffer), homogenized by polytron for ca. 20 sec on ice and centrifuged for 60 min at 4° C. (50000 g; Sorvall, rotor: SM24=20000 rpm). The cell pellets were resuspended in Krebs-tris buffer and homogenized by polytron for ca. 15 sec on ice. Protein was measured (Bradford method, Bio-Rad) and aliquots of 1 mL were prepared and stored at −80° C.
Radioligand binding assays were carried out in a volume of […] (96-well plates) which contained […] of cell memebranes, [3H]flumazenil at a concentration of 1 nM for α1, α2, α3 subunits and 0.5 nM for α5 subunits and the test compound in the range of […]. Nonspecific binding was defined by 10^−5 M diazepam and typically represented less than 5% of the total binding. Assays were incubated to equilibrium for 1 hour at 4° C. and harvested onto GF/C uni-filters (Packard) by filtration using a Packard harvester and washing with ice-cold wash buffer (50 mM Tris; pH 7.5). After drying, filter-retained radioactivity was detected by liquid scintillation counting. Ki values were calculated using Excel-Fit (Microsoft) and are the means of two determinations.

Substance: (5-Methoxy-benzofuran-2-yl)-(5-methyl-3-phenyl-isoxazol-4-yl)-methanone [Example 21]
- Ki: 1.4 nM
